Patent US20210220392A1, “MOLECULAR HYDROGEN-CONTAINING COMPOSITION FOR PREVENTION AND/OR IMPROVEMENT OF INFLAMMATORY BOWEL DISEASE” (MiZ Company Limited, priority 2020, published 2021)

Experiments:
[1] = known; versus H2; cited from earlier work
ulcerative colitis = assay: A case of ulcerative colitis improved by hydrogen inhalation (single patient case report); assay type: in vivo, human
Protocol: From around January 2018, the patient was taking a therapeutic agent for ulcerative colitis but was distressed because the disease was not cured with cyclic improvement and worsening. Additionally, the patient became depressed and gloomy, suffering insomnia and weight loss, because of the prolonged symptoms of ulcerative colitis. […] The patient drank two 500 mL PET bottles of hydrogen water per day.

[2] = room temperature, normal pressure; also printed as 1.6 mg/L; cited from earlier work
[3] = around June 9, six days after initiation of hydrogen gas inhalation plus hydrogen water

Row | Compound | superoxide eliminating effect compared with H2 [1] | general condition (ulcerative colitis; [3]) | sleep condition (ulcerative colitis; [3]) | body weight (ulcerative colitis; by Aug. 22, 2019) | hemorrhage (ulcerative colitis; by Aug. 22, 2019 (end of inhalation therapy)) | hemorrhage (ulcerative colitis; by Jul. 31, 2019) | frequency of defecation and patient's vigor (ulcerative colitis; by Jun. 17, 2019) | stool consistency (had been watery) (ulcerative colitis; by Jun. 17, 2019) | hemorrhage during defecation (ulcerative colitis; by Jun. 17, 2019 (inhalation started Jun. 3, 2019)) | endoscopy: hemorrhage in the rectum (had been filled with blood) (ulcerative colitis; endoscopy on Sep. 25, 2019) | endoscopy: wall of the small and large intestines (ulcerative colitis; endoscopy on Sep. 25, 2019) | endoscopy: several polyps found in the stomach (ulcerative colitis; endoscopy on Sep. 25, 2019, inhalation of hydrogen gas and drinking of hydrogen water) | volume of melena during defecation (ulcerative colitis; person, ulcerative colitis, around June 9, six days after initiation of hydrogen gas inhalation (approx. 5.0%, 1-3 h/day) plus hydrogen water 7 ppm, two 500 mL bottles/day) | concentration of hydrogen dissolved in water [2]
1 | [2H][2H] [D2, deuterium] | stronger | – | – | – | – | – | – | – | – | – | – | – | – | –
2 | [HH] [hydrogen gas, molecular hydrogen] | – | recovered | improved | increased to the healthy weight before the onset of the disease | no hemorrhage was found | no hemorrhage was found except that blood was attached to the stool only on the day after the patient had drunk alcohol | returned to the levels before the onset of the disease | became solid | further decreased | no hemorrhage in the rectum | recovered completely | disappeared | began to decrease | approximately 1.6 ppm
